Consider 7 molecules from US8940701B2, “Compounds for, and methods of, treating cancer and inhibiting invasion and metastases” (The Regents of the University of Michigan, priority 2009, dated 2015).

The test system of test [1] is metastatic human breast (SUM 52 PE) and prostate (DU 145) cancer cell lines, human microvascular cells (hmvec). It is filed as cell-based. The note with it: for fold more potent than the unmodified PHSCN: SUM 52 PE and DU 145 invasion. The procedure:
Some of the examples below employ an invasion assay utilizing naturally occurring basement membranes from 72 hour sea urchin embryos. Breast and prostate cancer invasion was induced with serum; hmvec invasion was induced with the PHSRN sequence of the plasma fibronectin (pFn) cell binding domain. The assay is described in U.S. Pat. No. 6,001,965, hereby incorporated by reference.
In this example, PHSCN peptides, where the sulfur of the SH group of cysteine was modified to block disulfide bond formation, were tested in an in vitro invasion assay utilizing naturally occurring basement membranes. More specifically, the invasion-inhibiting potencies of S-methylated and S-acetylated derivatives of the PHSCN (SEQ ID NO:1) peptide [i.e. Ac-PHSC(S—CH3)N—NH2 (SEQ ID NO:3) and Ac-PHSC(S—COCH3)N—NH2, (SEQ ID NO:4), respectively] were quantitated [in comparison with PHSCN (SEQ ID NO:1) dimerized by S—S bond formation] with two types of metastatic human cancer cell lines, i.e. a breast cell line (SUM 52 PE) and a prostate cell line (DU 145) (see FIG. 1 and FIG. 2, respectively). These modified peptides prevent breast cancer and prostate cancer invasion at concentrations in the pg/ml range.
In this example, PHSCN peptides, where two L-amino acids are substituted with D-amino acids, were tested in an in vitro invasion assay utilizing naturally occurring basement membranes. More specifically, the invasion-inhibiting potencies of Ac-PHScN—NH2 (SEQ ID NO:7), and Ac-PhScN—NH2 (SEQ ID NO:8) were quantitated [in comparison with Ac-PHSCN—NH2 (SEQ ID NO:12) as well as a scrambled peptide Ac-HSPNC—NH2 (SEQ ID NO:15)] with two types of metastatic human cancer cell lines, i.e. a breast cell line (SUM 52 PE) and a prostate cell line (DU 145) (see FIG. 3 and FIG. 4, respectively), as well as human microvascular cells (“hmvec”) (see FIG. 5). These modified peptides prevent breast cancer and prostate cancer invasion at concentrations in the pg/ml range.
Table I compares IC50's of Ac-PHSCN—NH2 (“PHSCN”) (SEQ ID NO:12), Ac-PhScN—NH2 (SEQ ID NO:8) (“PhScN”), Ac-PHScN—NH2 (SEQ ID NO:7) (“PHScN”), and the S-methylated and S-acetylated PHSCN derivatives [Ac-PHSC(S-Me)N—NH2 (SEQ ID NO:3) and Ac-PHSC(S—COCH3)N—NH2 (SEQ ID NO:4)]. The IC50 for PhScN is over 10,000-fold lower than that for PHSCN.

The test system of the next test is DU 145 prostate cancer. Kind of test: subcutaneous DU 145 tumors in nude mice, systemic therapy. It is filed as in vivo, athymic nude mice. The procedure:
In this example, PHSCN peptides, where two L-amino acids are substituted with D-amino acids, were tested in vivo. FIG. 6 compares the antitumorigenic effects of systemic Ac-PhScN—NH2 (SEQ ID NO:8) therapy at three different dosages (0.5, 0.05, and 0.005 micrograms per kg) with the antitumorigenic effects of 0.5 mg (500 micrograms) per kg of Ac-PHSCN—NH2 (SEQ ID NO:12) therapy using the DU 145 prostate cancer (as well as with untreated controls). The experiment involved generating subcutaneous DU 145 tumors in nude mice. More specifically, 500,000 suspended DU 145 cells were injected subcutaneously into the flanks of athymic nude mice. All mice were allowed to grow untreated DU 145 tumors in their flanks for about 8 weeks. All 3 therapies (i.e. using the three different dosages) were administered thrice-weekly by tail vein injection after the tumors became palpable. Each treatment group consisted of 8 intramuscular (flank) tumors. After 7 weeks of treatment, when the untreated tumors were very large, all mice were sacrificed at the same time, and all tumors dissected out and measured.

In a further test the target is α5β1 integrin (Homo sapiens, UniProt P08648). Description: competition with biotinylated PHSCN binding in SUM149PT cell extracts (blot). The note with it: PhScN:PHSCN ratios 0:1, 1:1, 10:1, 50:1. From the text:
In this experiment, biotinylated PHSCN peptide (Ac-PHSCNGGK(Bio)-NH2) (SEQ ID NO:18) was mixed with varying amounts of unlabeled Ac-PhScN—NH2 (SEQ ID NO:8). The mixed peptides were bound to detergent extracts of SUM149PT cells. A denaturing, non-reducing gel was run, blotted, and reacted with anti biotin primary antibody (FIG. 7). PhScN:PHSCN ratios were 0:1, 1:1, 10:1, or 50:1, as shown in lanes 2-5, respectively. Lane 1 contains the biotinylated α5β1 control. […] Thus, it is likely to interact with the same target site on α5 integrin as the PHSCN peptide. Alternatively PhScN binding could produce a structural or conformational change in the α5 subunit, such as a change in disulfide bonding pattern, that prevents binding of biotinylated PHSCN.

Test [2] concerns DU 145 prostate cancer cells. The note with it: 20 ug per ml, one hour preincubation, then irradiation.
The subject of the next test is Panc1 cells. Description: invasion of irradiated cells on SU-ECM basement membranes. Type of test: cell-based. The note with it: 1 μg/ml peptide, single 2 Gy dose, 16 hours. The procedure:
(§1) Adherent BxPC-3 and Panc1 cells were irradiated. Panc1 cells received a single 2 Gy dose. BxPC-3 cells received a single 3 Gy dose. Approximately 45 minutes later, the cells were suspended (trypsinized), pelleted and resuspended in medium containing 10% fetal calf serum. Then, the appropriate concentration of the Ac-PHSCN—NH2 (SEQ ID NO: 12) peptide, as well as a scrambled peptide Ac-HSPNC—NH2 (SEQ ID NO:15), was added to the suspended cells to make a final peptide concentration of 1 μg/ml, and they were dropped onto the surfaces of SU-ECM (sea urchin embryo basement membranes). At the time the cells were placed on the basement membranes, one hour had elapsed since irradiation. Cells were incubated on the basement membranes for 16 hours at 37° C. in 5% CO2, prior to scoring at 400-fold magnification, under phase contrast optics. All single cells adherent to the basement membranes were scored, with respect to whether they were inside the basement membranes (invaded), or were still adherent to the exterior surface (uninvaded). Mean invasion percentages were determined with their first standard deviations for each sample.

In another test the test system is BxPC-3 cells. The test is described as above. It is filed as cell-based. The note with it: 1 μg/ml peptide, single 3 Gy dose, 16 hours. The procedure: as §1

Where “and” joins values, the source holds several entries; their conditions need not be identical. Identical values can stand only once. Like-named read-outs stand apart in the source and are kept apart here. Bridge positions count the residues as written; N and C are the ends. Square brackets hold non-standard residues; d marks the D form. Peptide text beside a SMILES is read from it. I, II: the chains in the order shown.

Turning to `CC(=O)N1CCC[C@H]1C(=O)N[C@@H](Cc1c[nH]cn1)C(=O)N[C@@H](CO)C(=O)N[C@H](CS)C(=O)N[C@@H](CC(N)=O)C(N)=O` [Ac-PHScN-NH2] (Ac-PHS[dC]N-NH2), the “invasion-inhibiting potency relative to comparators, in words” value in test [1] is reported as “better than the controls, albeit not as potent as the two D-amino acid-containing peptide”. Moreover, the “IC50 (concentration exhibiting a 50% inhibition of invasion, relative to stimulated controls)” value in test [1] (72 h) amounted to 0.005 ng/mL.

Regarding `CC(=O)N1CCC[C@H]1C(=O)N[C@@H](Cc1c[nH]cn1)C(=O)N[C@@H](CO)C(=O)N[C@@H](CSSC[C@H](NC(=O)[C@H](CO)NC(=O)[C@H](Cc1c[nH]cn1)NC(=O)[C@@H]1CCCN1C(C)=O)C(=O)N[C@@H](CC(N)=O)C(N)=O)C(=O)N[C@@H](CC(N)=O)C(N)=O` [(PHSCN)2] (I: Ac-PHSCN-NH2 / II: Ac-PHSCN-NH2; disulfide I:4-II:4; N-terminus and C-terminus assumed), the “IC50 (concentration exhibiting a 50% inhibition of invasion, relative to stimulated controls)” value in test [1] (72 h) is 0.1 to 0.5 ng/mL.

Consider `CSC[C@H](NC(=O)[C@H](CO)NC(=O)[C@H](Cc1c[nH]cn1)NC(=O)[C@@H]1CCCN1C(C)=O)C(=O)N[C@@H](CC(N)=O)C(N)=O` [PHSC(S—CH3)N, Ac-PHSC(S—CH3)N—NH2] (Ac-PHSC(Me)N-NH2), for which the “IC50 (concentration exhibiting a 50% inhibition of invasion, relative to stimulated controls)” value in test [1] (72 h) stood at 0.001 ng/mL. Further, in test [1], the “fold more potent than the unmodified PHSCN” value is given as about 1000 fold. Further, in test [1] (listed as S-Me), the “invasion-inhibiting potency relative to comparators, in words” value is reported as “many orders of magnitude more potent”.

As for `CC(=O)N1CCC[C@H]1C(=O)N[C@H](Cc1c[nH]cn1)C(=O)N[C@@H](CO)C(=O)N[C@H](CS)C(=O)N[C@@H](CC(N)=O)C(N)=O` [Ac-PhScN-NH2] (Ac-P[dH]S[dC]N-NH2), the “visible tumor tissue after treatment” value with DU 145 prostate cancer (0.5 μg/kg thrice-weekly by tail vein injection, 7 weeks of treatment) is listed as “no tumor tissue was visible”. Further, in the test on DU 145 prostate cancer (mouse, in vivo), the “potency as inhibitor of tumorigenesis in vivo relative to Ac-PHSCN—NH2” value is reported as “orders of magnitude more potent”. For the same molecule, in test [1], the “concentration range demonstrating inhibition of invasion” value is 3 to 10 pg/ml and 5.0 to 16.7 pM; the “fold lower IC50 than that for PHSCN” value is given as “over 10,000 fold”; the “invasion-inhibiting potency relative to comparators, in words” value is recorded as “orders of magnitude more potent”. In addition, in test [1] (72 h), the “IC50 (concentration exhibiting a 50% inhibition of invasion, relative to stimulated controls)” value came out at 0.0003 ng/mL. Moreover, the “competition for biotinylated PHSCN binding to the α5 integrin subunit” value at α5β1 integrin is on record as “efficient competitor”.

As for “PHSCNGGKMAP [PHSCNGGK-MAP (8), Ac-PHSCNGGK-MAP]”, the “IC50 (concentration exhibiting a 50% inhibition of invasion, relative to stimulated controls)” value in test [1] (cell type not given) amounted to 0.3 ng/mL. Moreover, the “enhancement ratio (MED control / MED with dendrimer)” value in test [2] is “larger than one”.

“Ac-PHSC(Ac)N-NH2 [PHSC(S—COCH3)N, Ac-PHSC(S—COCH3)N—NH2]”: the “IC50 (concentration exhibiting a 50% inhibition of invasion, relative to stimulated controls)” value in test [1] (72 h) came out at 0.0001 ng/mL. In test [1], the “fold more potent than the unmodified PHSCN” value was ~100,000 fold. In addition, the “invasion-inhibiting potency relative to comparators, in words” value in test [1] (listed as S-OAc) is listed as “many orders of magnitude more potent”.

In the case of “Ac-HSPNC—NH2 (Ac-HSPNC-NH2) [scrambled peptide control]”, the invasion after irradiation result with Panc1 cells and in the test on BxPC-3 cells was “no inhibition of invasiveness” each time.
